In PMC9838390, “Discovery and biosynthesis of karnamicins as angiotensin converting enzyme inhibitors” (Nature Communications, 2023):
Several values for one entry are separate records, joined by “and”; a condition that tells them apart may be missing. Equal values may be shown once.

Experiments:
KnmB1 [1] = experiment: NADPH oxidation of KnmB1 and variants (340 nm); type: biochemical, L. rhizosphaerae NEAU-A2; conditions: KnmB1 + compound
Method: Hydrogen peroxide formation assay and NADPH oxidation […]
NADPH detection was carried out in the cuvette by NanoDrop 2000c (Fisher Scientific). NADPH signal at 340 nm was monitored in time using 6220 M–1 cm–1 as […]
(§1) Spectral data for new compounds […]
Reaction conditions: 50 mM Tris-HCl buffer (pH 7.5), 0.15 mM NADPH, and 2 μM KnmB1 or KnmB2. (e) NADPH oxidation of KnmB1 and variants. (f) NADPH oxidation of KnmB1 in the presence 24/32/36. (g) NADPH oxidation of KnmB1 and variants in the presence 24. Reaction conditions (e-g) for KnmB1 and their variants: 50 mM Tris-HCl buffer (pH 7.5), 0.15 mM NADPH, and 6 μM KnmB1 or variants, or 0.1 mM substrate 24/32/36. […]
(§2) 2 μM KnmB2 or variants, or 0.1 mM substrate 24/32. […]
(§3) Source data are provided as a Source Data file. […]

KnmB1 [2] = experiment: Hydrogen peroxide formation assay of KnmB1 and variants; type: biochemical, L. rhizosphaerae NEAU-A2; conditions: 30 °C, average of 3
Method: Hydrogen peroxide formation assay and NADPH oxidation
The hydrogen peroxide formed from KnmB1, KnmB2 and their variants were measured using the Hydrogen Peroxide Assay Kit (Beyotime Industrial Co. Ltd, Shanghai, China)4-5. 5–100 µL of enzyme reaction mixture was added to 100 µL of working reagent (S0038-1). The mixture was incubated for 30 min at 25 °C, at which time the absorbance at 560 nm was measured by NanoDrop 2000c (Fisher Scientific). […]
as §1
Supplementary Figure 131. H2O2 generation and NADPH oxidation for KnmB2, KnmB1 and their variants. (a) Hydrogen peroxide formation of KnmB2 and variants. […]
(b) Hydrogen peroxide formation of KnmB1 and variants. Reaction conditions: 100 µL system containing 50 mM Tris-HCl buffer (pH 7.5), 1 mM NADPH, 16 μM KnmB2, 17 μM KnmB1 or variants, 0.1 mM compound 24,1 mM SAM, and 2 […]
(1 picture or pasted object on this page, not shown here) […]
μM KnmF at 30 °C for 3h. (c) Hydrogen peroxide formation of KnmB1 and variants.
Reaction conditions: 100µL system containing 50 mM Tris-HCl buffer (pH 7.5), 0.3 mM NADPH, and 6 μM KnmB1 or variants, or 0.1 mM 24 at 30 °C for 30 min. […]
as §2, §3

[3] = Stability in enzyme reaction buffer; type: physicochemical; conditions: reaction buffer (50 mM Tris-HCl, pH 7.5, 30 °C)
Method: To further examine the catalytic role of methyltransferase KnmF and monooxygenases KnmB1 and KnmB2 during the karnamicin assembly process, we decided to characterize their enzyme activities in vitro. For KnmF, we synthesized 28 (Fig. 3, Supplementary Figs. 111–116, and Supplementary Table 19), a putative dedicated substrate of KnmF with a trihydroxypyridine core. Subsequently, a time course analysis of the enzyme-catalyzed reaction was performed with KnmF expressed by Escherichia coli BL21 (DE3) cells (Supplementary Fig. 117) and 28. Intriguingly, immediately following the consumption of 28, a compound 30 appeared. The subsequent decrease in abundance of 30 was accompanied by the accumulation of karnamicin E1 (1) (Fig. 4a). […]
The reaction of KnmF was carried out at 30 °C in a 100 µL system containing 50 mM Tris-HCl buffer (pH 7.5), 1 mM compound 28, 2 mM SAM, and 2 μM KnmF. […] After centrifugation (10 min at 13,523×g), the supernatant was analyzed by HPLC-DAD with solvent gradient as follows: T = 0 min, 55% B; T = 13.5 min, 55% B; T = 19 min, 65% B; T = 35 min, 65% B; T = 40 min, 100% B; T = 45 min, 100% B; T = 45.1 min, 55% B; T = 51 min, 55% B (A, H2O + 0.1% CH3COOH, v/v; B, MeCN), and the column temperature was 25 °C (Analytical method B).

## COc1cc(-c2csc(CCCC(C)=O)n2)nc(C(N)=O)c1O [Compound 36]
KnmB1 [1]; Time 0
  NADPH oxidation of KnmB1 in the presence of compound (replicates 1, 2, 3): 0.0000 µM
  NADPH oxidation of KnmB1 in the presence of compound, average value: 0.0000 µM
KnmB1 [1]; Time 1
  NADPH oxidation of KnmB1 in the presence of compound (replicates 1, 2, 3): 2.6688 µM and 1.0450 µM and 0.7235 µM
  NADPH oxidation of KnmB1 in the presence of compound, average value: 1.4791 µM
KnmB1 [1]; Time 2
  NADPH oxidation of KnmB1 in the presence of compound (replicates 1, 2, 3): 3.7942 µM and 2.2669 µM and 1.4470 µM
  NADPH oxidation of KnmB1 in the presence of compound, average value: 2.5027 µM
KnmB1 [1]; Time 3
  NADPH oxidation of KnmB1 in the presence of compound (replicates 1, 2, 3): 3.7460 µM and 2.5241 µM and 4.3730 µM
  NADPH oxidation of KnmB1 in the presence of compound, average value: 3.5477 µM
KnmB1 [1]; Time 4
  NADPH oxidation of KnmB1 in the presence of compound (replicates 1, 2, 3): 4.9196 µM and 2.5241 µM and 5.4662 µM
  NADPH oxidation of KnmB1 in the presence of compound, average value: 4.3033 µM
KnmB1 [1]; Time 5
  NADPH oxidation of KnmB1 in the presence of compound (replicates 1, 2, 3): 4.7428 µM and 3.0064 µM and 5.6752 µM
  NADPH oxidation of KnmB1 in the presence of compound, average value: 4.4748 µM
KnmB1 [1]; Time 8
  NADPH oxidation of KnmB1 in the presence of compound (replicates 1, 2, 3): 5.8360 µM and 3.0064 µM and 8.0225 µM
  NADPH oxidation of KnmB1 in the presence of compound, average value: 5.6217 µM
KnmB1 [1]; Time 10
  NADPH oxidation of KnmB1 in the presence of compound (replicates 1, 2, 3): 7.2669 µM and 6.4791 µM and 10.8521 µM
  NADPH oxidation of KnmB1 in the presence of compound, average value: 8.1994 µM
KnmB1 [1]; Time 15
  NADPH oxidation of KnmB1 in the presence of compound (replicates 1, 2, 3): 7.5080 µM and 6.4791 µM and 13.8264 µM
  NADPH oxidation of KnmB1 in the presence of compound, average value: 9.2712 µM
KnmB1 [1]; Time 20
  NADPH oxidation of KnmB1 in the presence of compound (replicates 1, 2, 3): 10.4502 µM and 12.1865 µM and 17.0257 µM
  NADPH oxidation of KnmB1 in the presence of compound, average value: 13.2208 µM
KnmB1 [1]; Time 30
  NADPH oxidation of KnmB1 in the presence of compound (replicates 1, 2, 3): 12.4116 µM and 12.1865 µM and 21.2701 µM
  NADPH oxidation of KnmB1 in the presence of compound, average value: 15.2894 µM
KnmB1 [1]; Time 40
  NADPH oxidation of KnmB1 in the presence of compound (replicates 1, 2, 3): 13.9068 µM and 22.9261 µM and 27.0579 µM
  NADPH oxidation of KnmB1 in the presence of compound, average value: 21.2969 µM
KnmB1 [1]; Time 60
  NADPH oxidation of KnmB1 in the presence of compound (replicates 1, 2, 3): 18.0547 µM and 22.9261 µM and 35.3698 µM
  NADPH oxidation of KnmB1 in the presence of compound, average value: 25.4502 µM
KnmB1 [2]; Fig. S131b, 1 mM NADPH, 17 μM KnmB1, 0.1 mM compound, 3 h
  hydrogen peroxide formation of KnmB1 (absorbance UV λ=560 nm), average value: 0.0940
KnmB1 [2]; Fig. S131c, 0.3 mM NADPH, 6 μM KnmB1, 0.1 mM compound, 30 min
  hydrogen peroxide formation of KnmB1 (absorbance UV λ=560 nm), average value: 0.0678

## CC(C)CCCCc1nc(-c2nc(C(N)=O)c(O)c(O)c2O)cs1 [Compound 28]
[3]
  stability in the reaction buffer: degraded rapidly
